# Measured values published in patent US5053070A, “Pyrimidine derivatives, preparation processes thereof, herbicide containing the same, and herbicidal compositions containing the same along with other active ingredient” (Mitsui Toatsu Chemicals, Incorporated, priority 1988, dated 1991).
# Key:
# green foxtail = assay: Upland soil application test (Test 2); type: in vivo; conditions: 30 g ai/a, soil spray before emergence, 30 days later
# Outline: (§1)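 Damage was graded 30 days after treatment by comparing air-dried plant weight with that of plants in untreated pots. Test compound, given as a diluted wettable powder, had been sprayed on the soil surface one day after sowing, before any weeds emerged.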
# foxtail meadow = assay: Upland soil application test (Test 2); type: in vivo; conditions: 30 g ai/a, soil spray before emergence, 30 days later
# Outline: as §1
# common lambsquarters = assay: Upland soil application test (Test 2); type: in vivo; conditions: 30 g ai/a, soil spray before emergence, 30 days later
# Outline: as §1
# large crabgrass = assay: Upland soil application test (Test 2); type: in vivo; conditions: 30 g ai/a, soil spray before emergence, 30 days later
# Outline: as §1
# barnyardgrass [1] = assay: Upland soil application test (Test 2); type: in vivo; conditions: 30 g ai/a, soil spray before emergence, 30 days later
# Outline: as §1
# johnsongrass = assay: Upland soil application test (Test 2); type: in vivo; conditions: 30 g ai/a, soil spray before emergence, 30 days later
# Outline: as §1
# redroot pigweed = assay: Upland soil application test (Test 2); type: in vivo; conditions: 30 g ai/a, soil spray before emergence, 30 days later
# Outline: as §1
# [2] = system: ALS (acetolactate syntase); assay: ALS enzyme assay (Test 1); type: biochemical, barnyardgrass; conditions: 1,000 ppm (0.5 mg/0.5 ml)
# Outline: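 Partially purified ALS from dark-grown pea and barnyardgrass seedlings incubated 1 h at 30° C with pyruvate, TPP, MgCl2 and FAD. Compounds tested at 1,000 ppm (0.5 mg/0.5 ml). Acetoin formed detected colorimetrically at 525 nm via creatine/α-naphthol, relative to blank and acid-stopped controls.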
# bulrush [3] = assay: Treatment of soil under submerged condition, pre-emergence (Test 4); type: in vivo; conditions: 30 g ai/a granule, 30 days later
# Outline: (§2)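 Under submerged conditions, pots carrying weed propagules and transplanted young rice (2–3 leaves) were given a granulated test composition one day after planting, ahead of weed emergence. Plants grew in a greenhouse, with weed emergence and crop injury read 30 days after treatment.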
# barnyardgrass [4] = assay: as above; type: in vivo; conditions: 30 g ai/a granule, 30 days later
# Outline: as §2
# Sagittaria pygmaea [5] = assay: as above; type: in vivo; conditions: 30 g ai/a granule, 30 days later
# Outline: as §2
# soybean = assay: Upland soil application test (Test 2), crop injury; type: in vivo; conditions: 30 g ai/a, soil spray before emergence, 30 days later
# Outline: (§3)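 Pre-emergence test in upland soil pots with weed seeds mixed into the soil; one day after seeding, wettable-powder formulation diluted in water and sprayed onto the soil surface at 10 l per are. Damage scored 30 days later from air-dried weight relative to untreated pots.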
# cotton = assay: Upland soil application test (Test 2), crop injury; type: in vivo; conditions: 30 g ai/a, soil spray before emergence, 30 days later
# Outline: as §3
# peanut = assay: Upland soil application test (Test 2), crop injury; type: in vivo; conditions: 30 g ai/a, soil spray before emergence, 30 days later
# Outline: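 Soil-surface application of water-diluted wettable powder at 10 l per are, made one day after seeding and ahead of weed emergence. Plants stayed in the greenhouse for 30 days; injury was rated by air-dried weight versus untreated pots.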
# bulrush [6] = assay: Treatment of soil under submerged condition, post-emergence (Test 5); type: in vivo; conditions: 30 g ai/a granule, 30 days later
# Outline: (§4)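 Scoring of weed emergence and rice injury took place 30 days after treatment. Treatment was a granule of the test composition, applied once barnyardgrass had two leaves, to submerged soil holding sown weeds and transplanted 2–3-leaf rice pairs grown under glass.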
# barnyardgrass [7] = assay: as above; type: in vivo; conditions: 30 g ai/a granule, post-emergence (barnyardgrass two-leaf stage), 30 days later
# Outline: as §4
# Sagittaria pygmaea [8] = assay: as above; type: in vivo; conditions: 30 g ai/a granule, 30 days later
# Outline: as §4
Inhibitory activity (%) Barnyardgrass [2],Compound,Herbicidal effects Green foxtail (green foxtail),Herbicidal effects Foxtail meadow (foxtail meadow),Herbicidal effects Common lambsquarters (common lambsquarters),Herbicidal effects Large crabgrass (large crabgrass),Herbicidal effects Barnyardgrass (barnyardgrass [1]),Herbicidal effects Johnsongrass (johnsongrass),Herbicidal effects Redroot pigweed (redroot pigweed),Herbicidal effects Bulrush (bulrush [3]),Herbicidal effects Barnyardgrass (barnyardgrass [4]),Herbicidal effects Sagittaria Pygmaea (Sagittaria pygmaea [5]),Injury Soybean (soybean),Injury Cotton (cotton),Injury Peanut (peanut),Herbicidal effects Bulrush (bulrush [6]),Herbicidal effects Barnyardgrass (barnyardgrass [7]),Herbicidal effects Sagittaria Pygmaea (Sagittaria pygmaea [8])
91%,COc1cc(OC)nc(Oc2ccccc2C=NOCC=Cc2ccc(Cl)cc2)n1 [Compound No. 28],5 (0-5 (Death)),5 (0-5 (Death)),4 (6-10 (Severe damages)),4 (6-10 (Severe damages)),4 (6-10 (Severe damages)),5 (0-5 (Death)),4 (6-10 (Severe damages)),3 (11-40 (Medium damages)),3 (11-40 (Medium damages)),3 (11-40 (Medium damages)),0 (91-100 (No damages)),0 (91-100 (No damages)),0 (91-100 (No damages)),4 (6-10 (Severe damages)),5 (0-5 (Death)),4 (6-10 (Severe damages))
39%,COc1cc(OC)nc(Oc2ccccc2C=NOCC=C(C)Cl)n1 [compound 12],4 (6-10 (Severe damages)),4 (6-10 (Severe damages)),3 (11-40 (Medium damages)),4 (6-10 (Severe damages)),4 (6-10 (Severe damages)),4 (6-10 (Severe damages)),3 (11-40 (Medium damages)),4 (6-10 (Severe damages)),4 (6-10 (Severe damages)),4 (6-10 (Severe damages)),0 (91-100 (No damages)),0 (91-100 (No damages)),0 (91-100 (No damages)),5 (0-5 (Death)),5 (0-5 (Death)),3 (11-40 (Medium damages))
97%,COc1cc(OC)nc(Oc2ccccc2C=NOCC=Cc2ccc(Cl)cc2Cl)n1 [compound 30],5 (0-5 (Death)),5 (0-5 (Death)),4 (6-10 (Severe damages)),5 (0-5 (Death)),5 (0-5 (Death)),5 (0-5 (Death)),5 (0-5 (Death)),4 (6-10 (Severe damages)),5 (0-5 (Death)),5 (0-5 (Death)),0 (91-100 (No damages)),0 (91-100 (No damages)),0 (91-100 (No damages)),4 (6-10 (Severe damages)),5 (0-5 (Death)),4 (6-10 (Severe damages))
89%,"COc1cc(OC)nc(Oc2ccccc2C=NOCC=Cc2cccc(Cl)c2)n1 [Compound No. 26, 0-(3-chlorocinnamyl)-2-(4,6-dimethoxy-2-pyrimidinyloxy)benzaldxime]",5 (0-5 (Death)),4 (6-10 (Severe damages)),4 (6-10 (Severe damages)),5 (0-5 (Death)),5 (0-5 (Death)),5 (0-5 (Death)),5 (0-5 (Death)),4 (6-10 (Severe damages)),4 (6-10 (Severe damages)),5 (0-5 (Death)),0 (91-100 (No damages)),0 (91-100 (No damages)),0 (91-100 (No damages)),4 (6-10 (Severe damages)),5 (0-5 (Death)),4 (6-10 (Severe damages))
91%,COc1cc(OC)nc(Oc2ccccc2C=NOCC=Cc2ccccc2C(F)(F)F)n1 [compound 32],5 (0-5 (Death)),5 (0-5 (Death)),4 (6-10 (Severe damages)),5 (0-5 (Death)),5 (0-5 (Death)),5 (0-5 (Death)),5 (0-5 (Death)),4 (6-10 (Severe damages)),5 (0-5 (Death)),5 (0-5 (Death)),0 (91-100 (No damages)),0 (91-100 (No damages)),0 (91-100 (No damages)),4 (6-10 (Severe damages)),5 (0-5 (Death)),4 (6-10 (Severe damages))
39%,CCCC=CCON=Cc1ccccc1Oc1nc(OC)cc(OC)n1 [compound 25],5 (0-5 (Death)),5 (0-5 (Death)),4 (6-10 (Severe damages)),5 (0-5 (Death)),4 (6-10 (Severe damages)),5 (0-5 (Death)),4 (6-10 (Severe damages)),3 (11-40 (Medium damages)),5 (0-5 (Death)),4 (6-10 (Severe damages)),0 (91-100 (No damages)),0 (91-100 (No damages)),0 (91-100 (No damages)),5 (0-5 (Death)),4 (6-10 (Severe damages)),3 (11-40 (Medium damages))
21%,C=CC(C)ON=Cc1ccccc1Oc1nc(OC)cc(OC)n1 (stereo not shown) [Compound No. 2],5 (0-5 (Death)),5 (0-5 (Death)),4 (6-10 (Severe damages)),5 (0-5 (Death)),5 (0-5 (Death)),5 (0-5 (Death)),4 (6-10 (Severe damages)),4 (6-10 (Severe damages)),5 (0-5 (Death)),4 (6-10 (Severe damages)),0 (91-100 (No damages)),0 (91-100 (No damages)),0 (91-100 (No damages)),5 (0-5 (Death)),5 (0-5 (Death)),5 (0-5 (Death))
59%,C=CCON=Cc1ccccc1Oc1nc(OC)cc(OC)n1 [Compound No. 4],5 (0-5 (Death)),5 (0-5 (Death)),3 (11-40 (Medium damages)),4 (6-10 (Severe damages)),5 (0-5 (Death)),5 (0-5 (Death)),4 (6-10 (Severe damages)),4 (6-10 (Severe damages)),4 (6-10 (Severe damages)),4 (6-10 (Severe damages)),0 (91-100 (No damages)),0 (91-100 (No damages)),0 (91-100 (No damages)),4 (6-10 (Severe damages)),5 (0-5 (Death)),3 (11-40 (Medium damages))
